The NIST ThermoML archive (doi:10.1016/j.fluid.2010.08.022)

Conditions: 101.33 kPa; for speed of sound: Sing-around technique in a fixed-path interferometer; for mass density: Vibrating tube method; for viscosity: 368.15 K, Visco Elite L rheometer

CCCCCCCC/C=C\CCCCCCCC(=O)[O-].OCC[NH2+]CCO [bis(2-hydroxyethyl)ammonium oleate]
Liquid crystal of unknown type
Conditions | mass density [kg/m3] | speed of sound [m/s]
310.91 K | 956.801 | 1479.3
311.16 K | 956.637 | 1478.5
311.41 K | 956.474 | 1477.7
311.66 K | 956.311 | 1476.9
311.91 K | 956.146 | 1476.1
312.16 K | 955.984 | 1475.3
312.41 K | 955.821 | 1474.5
312.66 K | 955.658 | 1473.7
312.91 K | 955.495 | 1472.9
313.16 K | 955.331 | 1472.1
313.4 K | 955.169 | 1471.3
313.66 K | 955.006 | 1470.5
313.91 K | 954.842 | 1469.7
314.16 K | 954.679 | 1468.9
314.41 K | 954.514 | 1468.2
314.66 K | 954.352 | 1467.4
314.91 K | 954.186 | 1466.6
315.16 K | 954.024 | 1465.8
315.41 K | 953.862 | 1465
315.65 K | 953.699 | 1464.2
315.91 K | 953.533 | 1463.4
316.16 K | 953.369 | 1462.7
316.41 K | 953.207 | 1461.9
316.66 K | 953.043 | 1461.1
316.91 K | 952.88 | 1460.3
317.16 K | 952.716 | 1459.5
317.41 K | 952.551 | 1458.8
317.66 K | 952.388 | 1458
317.91 K | 952.225 | 1457.2
318.16 K | 952.061 | 1456.4
318.41 K | 951.897 | 1455.6
318.66 K | 951.733 | 1454.9
318.91 K | 951.57 | 1454.1
319.16 K | 951.406 | 1453.3
319.41 K | 951.243 | 1452.5
319.66 K | 951.078 | 1451.7
319.91 K | 950.913 | 1451
320.16 K | 950.75 | 1450.2
320.41 K | 950.587 | 1449.4
320.66 K | 950.422 | 1448.6
320.91 K | 950.258 | 1447.8
321.16 K | 950.094 | 1447.1
321.41 K | 949.931 | 1446.3
321.66 K | 949.766 | 1445.5
321.91 K | 949.603 | 1444.7
322.16 K | 949.437 | 1444
322.41 K | 949.275 | 1443.2
322.65 K | 949.109 | 1442.4
322.91 K | 948.946 | 1441.6
323.16 K | 948.781 | 1440.8
323.41 K | 948.617 | 1440.1
323.66 K | 948.452 | 1439.3
323.91 K | 948.289 | 1438.5
324.16 K | 948.125 | 1437.8
324.41 K | 947.96 | 1437
324.66 K | 947.796 | 1436.2
324.9 K | 947.631 | 1435.4
325.16 K | 947.466 | 1434.7
325.41 K | 947.302 | 1433.9
325.66 K | 947.136 | 1433.2
325.91 K | 946.972 | 1432.4
326.16 K | 946.806 | 1431.6
326.41 K | 946.644 | 1430.8
326.66 K | 946.479 | 1430.1
326.91 K | 946.315 | 1429.3
327.16 K | 946.149 | 1428.5
327.41 K | 945.984 | 1427.8
327.66 K | 945.82 | 1427
327.91 K | 945.656 | 1426.2
328.16 K | 945.489 | 1425.5
328.41 K | 945.323 | 1424.7
328.66 K | 945.159 | 1423.9
328.91 K | 944.994 | 1423.2
329.16 K | 944.829 | 1422.4
329.41 K | 944.663 | 1421.6
329.66 K | 944.498 | 1420.8
329.91 K | 944.332 | 1420.1
330.16 K | 944.168 | 1419.3
330.41 K | 944.002 | 1418.5
330.66 K | 943.835 | 1417.8
330.91 K | 943.671 | 1417
331.16 K | 943.506 | 1416.3
331.4 K | 943.341 | 1415.5
331.66 K | 943.175 | 1414.7
331.91 K | 943.009 | 1414
332.16 K | 942.844 | 1413.2
332.41 K | 942.679 | 1412.5
332.66 K | 942.512 | 1411.7
332.91 K | 942.347 | 1410.9
333.16 K | 942.18 | 1410.2
333.41 K | 942.013 | 1409.4
333.66 K | 941.847 | 1408.7
333.91 K | 941.682 | 1407.9
334.16 K | 941.516 | 1407.2
334.41 K | 941.349 | 1406.4
334.66 K | 941.183 | 1405.6
334.91 K | 941.018 | 1404.9
335.16 K | 940.851 | 1404.1
335.41 K | 940.685 | 1403.4
335.66 K | 940.519 | 1402.6
335.91 K | 940.352 | 1401.8
336.16 K | 940.185 | 1401.1
336.41 K | 940.019 | 1400.3
336.66 K | 939.852 | 1399.6
336.91 K | 939.686 | 1398.8
337.16 K | 939.519 | 1398
337.4 K | 939.352 | 1397.3
337.66 K | 939.185 | 1396.5
337.91 K | 939.017 | 1395.8
338.16 K | 938.852 | 1395
338.41 K | 938.684 | 1394.3
338.66 K | 938.517 | 1393.5
338.91 K | 938.351 | 1392.8
339.16 K | 938.182 | 1392
339.41 K | 938.014 | 1391.2
339.66 K | 937.846 | 1390.5
339.91 K | 937.68 | 1389.7
340.15 K | 937.513 | 1389
340.41 K | 937.345 | 1388.2
340.66 K | 937.177 | 1387.5
340.91 K | 937.009 | 1386.7
341.16 K | 936.844 | 1386
341.41 K | 936.674 | 1385.2
341.65 K | 936.507 | 1384.5
341.91 K | 936.339 | 1383.8
342.16 K | 936.171 | 1383
342.41 K | 936.003 | 1382.3
342.66 K | 935.836 | 1381.5
342.9 K | 935.668 | 1380.8
343.15 K | 935.491 | 1380.1

Conditions | viscosity [mPa·s]
Liquid | 37.2
Liquid crystal of unknown type | 37.2
